Laboratory results reported in patent US5070210A, “Novel ketenimines as intermediates for insecticides” (ICI Americas Inc., priority 1990, dated 1991).

How the values were obtained:
Format in all cases: in vivo
[1] = tested on: Maize weevil [Sitophilus Zeamais (Motschulsky)]; assay: Maize weevil insecticidal test; details: adult weevils, percent in solution; 48 hours
Summary of the method: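 LC50, in percent of compound in solution, was derived from dosage-mortality curves after 48 h at about 25 °C. Ten adult weevils per container fed on four corn seeds briefly immersed in acetone:water (50:50) solutions of up to 0.01% and dried.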

[2] = tested on: Housefly [Musca domestica]; assay: Housefly insecticidal test; details: μg per 25 female flies; mortality after 48 hours
Summary of the method: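 Dose range started at 100 μg per 25 female flies and went downward. Insects (1-2 days old) contacted a dried acetone/peanut-oil deposit in dishes; LC50 values come from dosage-mortality curves at 48 h.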

[3] = tested on: Rice water weevil [Lissorhoptrus oryzophilus (Kuschel)]; assay: Rice water weevil insecticidal test; details: topical, μg per weevil; 48 hours
Description: The compounds in Tables 1 and 2 above were tested for insecticidal activity using the following testing procedures. LC50 values, based on the results of these tests and calculated according to dosage-mortality curves, are expressed in Table 3.
Rice water weevil [Lissorhoptrus oryzophilus (Kuschel)]:
Test compounds were diluted in acetone. Droplets (1 μl) of test solutions were applied to the ventral abdomens of ten female adult weevils. The treated weevils were placed in containers with wet cotton balls and rice foliage. The containers were covered and kept at a temperature of about 25° C. Mortality was recorded after 48 hours. Test concentrations ranged from […] or 2.5 μg per weevil down to that at which 50% mortality occurred. The LC50 values are expressed below in Table 3 under the heading "RWW" in terms of μg of test compound per weevil.

[4] = tested on: Cabbage Looper [Trichoplusia ni (Hubner)]; assay: Cabbage looper insecticidal test; details: second-instar larvae, percent in solution; 3-5 days
Summary of the method: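 Leaf dip, squash cotyledons, 50-50 acetone-water, top dose 0.1% and lower. 5 second-instar larvae/dish, moist filter paper, high-humidity chamber. Mortality at 3-5 d; LC50 (% in solution) from dosage-mortality curves.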

[5] = tested on: Tobacco Budworm [Heliothis virescens (Fabricius)] eggs; assay: Tobacco budworm egg test; details: 2-day old eggs, percent in solution
Summary of the method: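 LC50 values (percent test compound in the dip solution) were calculated from dosage-mortality curves. Egg patches, 2 days old, were dipped in acetone solutions at concentrations from 0.1% downward and held at 78° F on rearing medium until control larvae hatched and fed.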

[6] = tested on: Aster Leafhopper [Macrosteles fascifrens (Stal)]; assay: Aster leafhopper insecticidal test; details: adults/nymphs, percent in solution; 48 hours
Summary of the method: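 Three ~10 cm oat seedlings per cup were dipped 2-3 seconds in 50-50 acetone-water compound solutions, dried, and caged with ten adult/nymph leafhoppers. Mortality was counted after 48 hours at concentrations from 0.05% downward. LC50, as percent compound in solution, came from dosage-mortality curves.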

[7] = tested on: Tobacco Budworm [Heliothis virescens (Fabricius)] larvae; assay: Tobacco budworm contact test; details: second-instar larvae, percent in solution, 5 days
Summary of the method: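 Cotton cotyledons dipped 2–3 s in compound in 50-50 acetone-water, dried, then infested with 5 second-instar larvae and held 5 days at high humidity. Mortality scored; LC50 from dosage-mortality curves, expressed as percent compound in solution, concentrations from 0.1% downward.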

[8] = tested on: Beet Armyworm (Spodoptera exigua); assay: Beet armyworm insecticidal test; details: second-instar larvae, percent in solution; five days
Summary of the method: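 Sugar beet leaves dipped 2–3 s in compound diluted in 50:50 acetone-water, dried, then infested with five second-instar larvae in humid petri dishes. Mortality scored at 5 days; concentrations from 0.1% downward. LC50 from dosage-mortality curves, expressed as percent compound in solution.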

For `CC(C)C(=Nc1ccc(Br)c(Cl)c1)OCc1ccc(F)c(Oc2ccc(Cl)cc2)c1` [Compound 381], the “LC50, MW” value [1] was greater than 0.01%, the “LC50, HF” value [2] was less than 100 µg and the “LC50, RWW” value [3] was greater than 2.5 µg. The “LC50, CL” value [4] was 0.00092% and the “LC50, TBW, E (TBW-E)” value [5] was 0.018%.

For `CC(C)C(=Nc1ccc(C(F)(F)F)c(Br)c1)OCc1ccc(F)c(Oc2ccc(Cl)cc2)c1` [Compound 433], the “LC50, MW” value [1] was 0.005%, the “LC50, HF” value [2] was less than 100 µg and the “LC50, RWW” value [3] was 0.078 µg. The “LC50, CL” value [4] was 0.00017% and the “LC50, TBW, E (TBW-E)” value [5] was 0.02%.

With `CC(C)C(=Nc1cccc(F)c1)OCc1ccc(F)c(Oc2ccc(Cl)cc2)c1` [Compound 375] the “LC50, MW” value [1] was greater than 0.01%, the “LC50, HF” value [2] was 7.9 µg and the “LC50, RWW” value [3] was greater than 2.5 µg. For the same compound, the “LC50, CL” value [4] was greater than 0.1% and the “LC50, TBW, E (TBW-E)” value [5] was 0.04%.

In the case of `CC(C)C(=Nc1ccc(F)c(Cl)c1)OCc1cc(Oc2ccc(F)cc2)ccc1F` [Compound 230], the “LC50, MW” value [1] is reported as 0.038%, the “LC50, HF” value [2] is reported as 36 µg and the “LC50, RWW” value [3] is reported as greater than 2.5 µg. For the same compound, the “LC50, CL” value [4] was 0.0004% and the “LC50, TBW, E (TBW-E)” value [5] was 0.1%.

`CC(C)C(=Nc1c(F)c(F)c(F)c(F)c1F)OCc1cccc(Oc2ccc(F)cc2)c1` [Compound 198] was tested, and the “LC50, MW” value [1] was 0.003%, the “LC50, HF” value [2] was 52 µg and the “LC50, RWW” value [3] was greater than 2.5 µg. For the same compound, the “LC50, CL” value [4] was 0.0005%, the “LC50, TBW, E (TBW-E)” value [5] was greater than 0.1% and the “LC50, LH” value [6] was 0.05%.

`CC(C)(F)C(=Nc1ccc(F)c(Cl)c1)OCc1ccc(F)c(Oc2ccc(F)cc2)c1` [Compound 310] was tested, and the “LC50, HF” value [2] was 4.5 µg, the “LC50, RWW” value [3] was greater than 2.5 µg and the “LC50, CL” value [4] was 0.00006%. For the same compound, the “LC50, TBW, E (TBW-E)” value [5] was 0.015%.

`CC(C)C(=Nc1ccc(Cl)c(Cl)c1)OCc1ccc(F)c(Oc2ccccc2)c1` [Compound 376] was tested, and the “LC50, MW” value [1] was 0.0061%, the “LC50, HF” value [2] was 17 µg and the “LC50, RWW” value [3] was 0.1 µg. For the same compound, the “LC50, CL” value [4] was 0.00037% and the “LC50, TBW, E (TBW-E)” value [5] was 0.02%.

In the case of `ClCC(=Nc1ccc(Cl)cc1)OCc1cccc(Oc2ccccc2)c1` [Compound 31], the “LC50, MW” value [1] is reported as greater than 0.01%, the “LC50, TBW, C (TBW-C)” value [7] is reported as 0.01% and the “LC50, HF” value [2] is reported as greater than 100 µg. The “LC50, CL” value [4] was 0.05%, the “LC50, TBW, E (TBW-E)” value [5] was greater than 0.1% and the “LC50, LH” value [6] was greater than 0.05%. For the same compound, the “LC50, BAW” value [8] was 0.08%.

`CC(C)C(=Nc1cccc(I)c1)OCc1ccc(F)c(Oc2ccc(F)cc2)c1` [Compound 279] was tested, and the “LC50, MW” value [1] was greater than 0.01%, the “LC50, TBW, C (TBW-C)” value [7] was 0.007% and the “LC50, HF” value [2] was 4 µg. The “LC50, CL” value [4] was 0.00008%, the “LC50, TBW, E (TBW-E)” value [5] was 0.016% and the “LC50, LH” value [6] was 0.0003%. The “LC50, BAW” value [8] was 0.0025%.

For `CC(C)C(=Nc1ccc(F)c(Br)c1)OCc1cccc(Oc2ccccc2)c1` [Compound 254], the “LC50, HF” value [2] was 6 µg, the “LC50, RWW” value [3] was greater than 2.5 µg and the “LC50, CL” value [4] was 0.001%. For the same compound, the “LC50, TBW, E (TBW-E)” value [5] was 0.026%.

For `Fc1ccc(N=C(OCc2cccc(Oc3ccccc3)c2)C2CC2)cc1Cl` [Compound 113], the “LC50, HF” value [2] was 15 µg, the “LC50, RWW” value [3] was greater than 2.5 µg and the “LC50, CL” value [4] was 0.005%. The “LC50, TBW, E (TBW-E)” value [5] was 0.1%.

With `CC(C)C(=Nc1ccc(OC(F)(F)F)cc1)OCc1ccc(F)c(Oc2ccc(F)c(F)c2)c1` [Compound 347] the “LC50, MW” value [1] was greater than 0.01%, the “LC50, TBW, C (TBW-C)” value [7] was 0.0001% and the “LC50, HF” value [2] was 30 µg. For the same compound, the “LC50, CL” value [4] was 0.000075%, the “LC50, TBW, E (TBW-E)” value [5] was greater than 0.1% and the “LC50, LH” value [6] was 0.0002%. The “LC50, BAW” value [8] was 0.00075%.

In the case of `CC(C)C(=Nc1ccc(C(F)(F)F)c(Br)c1)OCc1ccc(F)c(Oc2ccc(Cl)cc2)c1` [Compound 377], the “LC50, MW” value [1] is reported as greater than 0.01%, the “LC50, HF” value [2] is reported as less than 100 µg and the “LC50, RWW” value [3] is reported as greater than 2.5 µg. The “LC50, CL” value [4] was 0.00062% and the “LC50, TBW, E (TBW-E)” value [5] was greater than 0.1%.

With `FC(F)(F)c1ccc(N=C(OCc2cccc(Oc3ccccc3)c2)C(Cl)Cl)cc1` [Compound 61] the “LC50, MW” value [1] was greater than 0.01%, the “LC50, TBW, C (TBW-C)” value [7] was 0.03% and the “LC50, HF” value [2] was 29 µg. The “LC50, CL” value [4] was 0.001%, the “LC50, TBW, E (TBW-E)” value [5] was 0.03% and the “LC50, LH” value [6] was greater than 0.05%. For the same compound, the “LC50, BAW” value [8] was 0.002%.
